Assay results as given in patent publication US20240116882A1, “NOVEL BENZOTRIAZOLE DERIVATIVE HAVING INHIBITORY ACTIVITY AGAINST ECTONUCLEOTIDE PYROPHOSPHATASE-PHOSPHODIESTERASE, AND USE THEREOF” (TXINNO BIOSCIENCE INC., priority 2021, published 2024).
pIC50: −log10 of the molar value. Where a name gives a salt, the structure may show the parent alone.

Target: T1, human recombinant ENPP1 enzymes (Homo sapiens, UniProt P22413)
T1 construct: purchased R & D systems
T1 sequence (P22413 1-925): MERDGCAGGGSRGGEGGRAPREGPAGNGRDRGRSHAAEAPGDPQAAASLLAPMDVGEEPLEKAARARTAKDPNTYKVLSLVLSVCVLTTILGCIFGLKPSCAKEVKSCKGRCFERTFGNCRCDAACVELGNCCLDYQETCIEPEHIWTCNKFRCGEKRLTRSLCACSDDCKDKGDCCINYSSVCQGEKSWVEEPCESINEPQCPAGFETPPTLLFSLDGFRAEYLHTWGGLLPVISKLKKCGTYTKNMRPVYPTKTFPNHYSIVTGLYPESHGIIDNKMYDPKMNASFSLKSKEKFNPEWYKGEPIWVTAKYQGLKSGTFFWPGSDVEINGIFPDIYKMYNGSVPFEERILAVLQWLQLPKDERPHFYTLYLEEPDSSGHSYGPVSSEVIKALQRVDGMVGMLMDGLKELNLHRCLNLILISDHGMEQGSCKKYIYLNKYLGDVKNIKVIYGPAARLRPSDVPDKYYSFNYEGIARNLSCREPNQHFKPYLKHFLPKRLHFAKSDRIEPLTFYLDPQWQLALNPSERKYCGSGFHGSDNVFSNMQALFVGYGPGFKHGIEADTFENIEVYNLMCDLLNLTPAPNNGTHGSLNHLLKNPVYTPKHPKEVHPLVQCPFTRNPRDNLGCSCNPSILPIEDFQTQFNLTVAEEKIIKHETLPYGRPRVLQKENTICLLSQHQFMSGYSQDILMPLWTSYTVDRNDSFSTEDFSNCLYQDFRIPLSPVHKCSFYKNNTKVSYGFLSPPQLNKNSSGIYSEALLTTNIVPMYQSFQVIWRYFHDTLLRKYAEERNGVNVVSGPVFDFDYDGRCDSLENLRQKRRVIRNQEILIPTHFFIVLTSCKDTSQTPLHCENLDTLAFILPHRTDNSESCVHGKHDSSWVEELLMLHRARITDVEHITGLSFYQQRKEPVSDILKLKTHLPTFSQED
Assay: ENPP1 Enzyme Assay with cGAMP Substrate (AMP-Glo)
Format: biochemical
Details: human recombinant ENPP1, cGAMP 5 μM, 37° C. 90 minutes, AMP-Glo luminescence; read-out: Enzymatic activity (IC50)
Description: ENPP1 hydrolyzes nucleotides or nucleotide derivatives to produce nucleoside-5′-monophosphate and pyrophosphate. In addition, ENPP1 hydrolyzes 2′,3′-cGAMP to produce 5′-adenosine monophosphate (AMP) and 5′-guanosine monophosphate (GMP). AMP produced from the reaction is measured using the AMP-Glo® kit (Promega). The AMP-Glo® kit contains two reagents. The first reagent terminates the AMP-producing enzymatic reaction, removes ATP and converts the produced AMP into ADP. The second reagent converts ADP into ATP which is used to generate luminescence in the luciferase reaction. The amount of luminescence measured is proportional to the amount of AMP produced by ENPP1.
The final reaction solution contains 50 mM Tris (pH 8.5) buffer, 250 mM NaCl, 0.5 mM CaCl2), 1 μM ZnCl2, 5% glycerol and 1% DMSO. Serially diluted ENPP1 inhibitors (typically in the range of 10 μM to 0.5 nM) were pre-stored with human recombinant ENPP1 enzymes (R & D systems) at 3 ng/reaction and room temperature (RT) for 5 to 10 minutes. The reaction was initiated by addition of cGAMP (at a final concentration of 5 μM) and reacted at 37° C. for 90 minutes. At the end of the reaction, 10 μl of the AMP-Glo first reagent was added to stop the reaction and the result was stored at room temperature for 1 hour. After storage, 20 μl of an AMP detection solution (a mixture of AMP-Glo II reagent and Kinase-Glo at a ratio of 1:100) was added and stored at room temperature for 1 hour. Luminescence signals were measured using a Victor® plate reader (Perkin Elmer). The maximal activity control (containing enzymes and substrates in the presence of 1% DMSO; MAX) and the minimal activity control (containing substrates and 1% DMSO; MIN) were evaluated simultaneously. In each experiment, serially diluted reference ENPP1 inhibitors were tested as well. IC50, indicating % residual activity versus compound concentration was determined by fitting inhibition curves using the 3-parameter analysis of GraphPad Prism® software. Serially diluted samples of one compound were tested two or more times and an average IC50 of each compound was calculated.

SMILES	pIC50
COc1ccc2c(c1)nnn2C1CCNCC1 [Example 1, 5-methoxy-1-(piperidin-4-yl)-1H-benzo[d][1,2,3]triazole Hydrochloride]	< 5.00
COc1ccc2c(c1)nnn2C1CCC(CN)CC1 (stereo not shown) [Example 2]	< 5.00
COc1cccc2c1nnn2-c1ccc(CN)cc1 [Example 6, 4-(4-methoxy-1H-benzo[d][1,2,3]triazol-1-yl)phenyl)methanamine Hydrochloride]	< 5.00
COc1ccc2nnn(-c3ccc(CN)cc3)c2c1 [Example 7, 4-(6-methoxy-1H-benzo[d][1,2,3]triazol-1-yl)phenyl)methanamine Hydrochloride]	< 5.00
COc1cccc2nnn(-c3ccc(CN)cc3)c12 [Example 8, 4-(7-methoxy-1H-benzo[d][1,2,3]triazol-1-yl)phenyl)methanamine Hydrochloride]	< 5.00
COc1ccc2c(c1)nnn2-c1cccc(CCN)c1 [Example 11, 2-(3-(5-methoxy-1H-benzo[d][1,2,3]triazol-1-yl)phenyl)ethan-1-amine Hydrochloride]	< 5.00
CNCc1ccc(-n2nnc3cc(OC)ccc32)cc1 [Example 12, 1-(4-(5-methoxy-1H-benzo[d][1,2,3]triazol-1-yl)phenyl)-N-methylmethanamine Hydrochloride]	< 5.00
COc1ccc2c(c1)nnn2-c1ccc(CNC2CC2)cc1 [Example 13, N-(4-(5-methoxy-1H-benzo[d][1,2,3]triazol-1-yl)-benzyl)cyclopropanamine Hydrochloride]	< 5.00
COc1ccc2c(c1)nnn2-c1cc(F)c(CN)cc1F [Example 17]	< 5.00
COc1ccc2c(c1)nnn2-c1cc(F)c(CN)c(F)c1 [Example 18]	< 5.00
CCOc1ccc2c(c1)nnn2-c1ccc(CN)cc1F [Example 19]	< 5.00
CC(C)Oc1ccc2c(c1)nnn2-c1ccc(CN)cc1F [Example 20]	< 5.00
CC(F)(F)c1ccc2c(c1)nnn2-c1ccc(CN)cc1 [Example 21]	< 5.00
CC(F)(F)c1ccc2c(c1)nnn2-c1ccc(CN)cc1F [Example 22]	< 5.00
NCc1ccc(-n2nnc3cc(OCF)ccc32)c(F)c1 [Example 23]	< 5.00
NCc1ccc(-n2nnc3cc(OC(F)F)ccc32)c(F)c1 [Example 24]	< 5.00
COc1ccc2c(c1)nnn2-c1ccc2c(c1)CNCC2 [Example 25, 7-(5-methoxy-1H-benzo[d][1,2,3]triazol-1-yl)-1,2,3,4-tetrahydroisoquinoline Hydrochloride]	< 5.00
COc1ccc2c(c1)nnn2-c1cc2c(cc1F)CNCC2 [Example 26, 7-fluoro-6-(5-methoxy-1H-benzo[d][1,2,3]triazol-1-yl)-1,2,3,4-tetrahydroisoquinoline Hydrochloride]	< 5.00
COc1ccc2c(c1)nnn2-c1ccc2c(c1)CNCCC2 [Example 27, 8-(5-methoxy-1H-benzo[d][1,2,3]triazol-1-yl)-2,3,4,5-tetrahydro-1H-benzo[c]azepine Hydrochloride]	< 5.00
COc1cc2nnn(-c3cc(F)c(CN)cc3F)c2cc1OC [Example 28]	< 5.00
COc1cc2nnn(-c3ccc4c(c3)CNC4)c2cc1OC [Example 29, 1-(isoindolin-5-yl)-5,6-dimethoxy-1H-benzo[d][1,2,3]triazole Hydrochloride]	< 5.00
COc1ccc2c(c1)nnn2C12CC(CN)(C1)C2 [Example 30]	< 5.00
COc1ccc2c(c1)nnn2-c1cc(C)sc1CN [Example 31, 3-(5-methoxy-1H-benzo[d][1,2,3]triazol-1-yl)-5-methylthiophen-2-yl)methanamine Hydrochloride]	< 5.00
COc1ccc2c(c1)nnn2C1CCN(S(N)(=O)=O)CC1 [Example 42, 4-(5-methoxy-1H-benzo[d][1,2,3]triazol-1-yl)piperidine-1-sulfonamide]	< 5.00

Other lines, results leading:

pIC50	SMILES
5.00 to 6.00	COc1ccc2c(c1)nnn2CC1CCNCC1 [Example 3, 5-methoxy-1-(piperidin-4-ylmethyl)-1H-benzo[d][1,2,3]triazole]
5.00 to 6.00	COc1ccc2c(c1)nnn2-c1ccc(N)cc1 [Example 4, 4-(5-methoxy-1H-benzo[d][1,2,3]triazol-1-yl)aniline Hydrochloride]
> 6.00	NCc1ccc(-n2nnc3ccccc32)cc1 [Example 5, 4-(1H-benzo[d][1,2,3]triazol-1-yl)phenyl)methanamine Hydrochloride]
5.00 to 6.00	COc1cc(OC)c2nnn(-c3ccc(CN)cc3)c2c1 [Example 9, 4-(4,6-dimethoxy-1H-benzo[d][1,2,3]triazol-1-yl)phenyl)methanamine Hydrochloride]
5.00 to 6.00	COc1cc2nnn(-c3ccc(CN)cc3)c2cc1OC [Example 10, 4-(5,6-dimethoxy-1H-benzo[d][1,2,3]triazol-1-yl)phenyl)methanamine Hydrochloride]
> 6.00	COc1ccc2c(c1)nnn2-c1ccc([C@H](C)N)cc1 [Example 14, (S)-1-(4-(5-methoxy-1H-benzo[d][1,2,3]triazol-1-yl)phenyl)ethan-1-amine Hydrochloride]
> 6.00	COc1ccc2c(c1)nnn2-c1ccc(CN)cc1Cl [Example 15, 3-chloro-4-(5-methoxy-1H-benzo[d][1,2,3]triazol-1-yl)phenyl)methanamine Hydrochloride]
> 6.00	COc1ccc2c(c1)nnn2C1CCC(CNS(N)(=O)=O)C1 (stereo not shown) [Example 41, N-((3-(5-methoxy-1H-benzo[d][1,2,3]triazol-1-yl)cyclopentyl)methyl)sulfamide]
> 6.00	COc1ccc2c(c1)nnn2C1CCC(CNS(N)(=O)=O)CC1 (stereo not shown) [Example 43, N-((4-(5-methoxy-1H-benzo[d][1,2,3]triazol-1-yl)cyclohexyl)methyl)sulfamide]
> 6.00	COc1ccc2c(c1)nnn2C1CCN(CCS(N)(=O)=O)CC1 [Example 44, 2-(4-(5-methoxy-1H-benzo[d][1,2,3]triazol-1-yl)piperidin-1-yl)ethane-1-sulfonamide]
> 6.00	COc1ccc2c(c1)nnn2CC1CCN(S(N)(=O)=O)CC1 [Example 45, 4-((5-methoxy-1H-benzo[d][1,2,3]triazol-1-yl)methyl)piperidine-1-sulfonamide]
5.00 to 6.00	NS(=O)(=O)NCc1ccc(-n2nnc3ccccc32)cc1 [Example 46, N-(4-(1H-benzo[d][1,2,3]triazol-1-yl)benzyl)sulfamide]
5.00 to 6.00	COc1ccc2c(c1)nnn2-c1cccc(NS(N)(=O)=O)c1 [Example 47, N-(3-(5-methoxy-1H-benzo[d][1,2,3]triazol-1-yl)phenyl)sulfamide]
> 6.00	COc1ccc2c(c1)nnn2-c1ccc(NS(N)(=O)=O)cc1 [Example 48, N-(4-(5-methoxy-1H-benzo[d][1,2,3]triazol-1-yl)phenyl)sulfamide Hydrochloride]
5.00 to 6.00	COc1ccc2c(c1)nnn2-c1cccc(CNS(N)(=O)=O)c1 [Example 49, N-(3-(5-methoxy-1H-benzo[d][1,2,3]triazol-1-yl)benzyl)sulfamide]
> 6.00	COc1cccc2c1nnn2-c1ccc(CNS(N)(=O)=O)cc1 [Example 50, N-(4-(4-methoxy-1H-benzo[d][1,2,3]triazol-1-yl)benzyl)sulfamide]
